Experimental data as given in patent US20180271996A1, “COMBINATION THERAPIES OF HER2-TARGETED ANTIBODY-DRUG CONJUGATES” (Mersana Therapeutics, Inc., priority 2017, published 2018).
Non-standard residues stand in square brackets, D forms with d. Residues, ends and D or L forms follow the SMILES beside them. *: point of attachment. Dolaproine = CO[C@@H]([C@@H]1CCCN1)[C@@H](C)C(=O)O; Dil = CC[C@H](C)[C@H](NC)[C@@H](CC(=O)O)OC; NMe2Val = CC(C)[C@@H](C(=O)*)N(C)C; NH(3-hydroxypropyl) = OCCCN*

What was measured:
JIMT-1 = test: ATP release from cells (ENLITEN ATP Assay), JIMT-1; assay type: cell-based, human; details: AF-HPA or XMT-1519 conjugate at 0.5 μM, 24 h, mitoxantrone positive control, compared to untreated (control) cells, FIG. 2
Procedure: (§1) Cancer cells undergoing apoptosis in response to specific anticancer therapies are immunogenic (also known as immunogenic cell death (ICD)), as long as they emit precise DAMPs in a spatiotemporally defined fashion. […] Mitoxantrone, a known strong inducer of ICD and ATP release, was used as a positive control. Briefly, two HER2 expressing cell lines, JIMT-1 (cat. # ACC589, DSMZ Cell Collection) and SKBR3 (cat # ATCC® HTB 30™, American Tissue Culture Collection) were seeded at a density of 7500 cells per well in 24 wells plate, allowed to grow for 24 h, and then treated with AF-HPA or XMT-1519 conjugate at 0.5 μM in 100 μl in […] (Cat#11875-119, Thermo Fisher Scientific) for 24 h. The cells were then pelleted by centrifugation and ATP release was measured using ENLITEN® ATP Assay System (Promega) according to manufacturer's instructions.

SKBR3 [1] = test: ATP release from cells (ENLITEN ATP Assay), SKBR3; assay type: cell-based; details: AF-HPA or XMT-1519 conjugate at 0.5 μM, 24 h, mitoxantrone positive control, compared to untreated (control) cells, FIG. 2
Procedure: as §1

NCI-N87 cells = test: Calreticulin exposure on cell membrane (flow cytometry), NCI-N87; assay type: cell-based, human; details: 2.5 h at 37° C
Procedure: (§2) High HER2-expressing cell lines, NCI-N87 (800,000 HER2 receptors), SKBR3 (700,000 HER2 receptors) and low HER2 expressing cell line HT-29 (16,000 HER2 receptors) were re-suspended at a density of 2×10^6 cells/mL in 100 μl PBS containing 2% FBS. Cells in 96 well plate (Corning® 96 Well Clear Round Bottom Polypropylene Not Treated Microplate cat#3879) were treated with XMT-1519 conjugate or AF-HPA at 1 μM or with mitoxantrone, a strong calreticulin exposure inducer, at 0.01 to 1 μM for 2.5 h at 37° C. Cells were then incubated with anti-calreticulin antibody (clone 16B11.1 Cat: MABT217, Millipore Sigma, 1:200) in ice cold PBS containing 2% FBS for 1 h on ice, washed twice with cold PBS containing 2% and then incubated for 20 min on ice with a secondary antibody (Alexa 647-anti Mouse IgG (H+L) 1:800, Thermo Fisher Scientific Cat#:A32728) in ice cold PBS containing 2% FBS. Thereafter the cells were stained with Annexin V (Pacific Blue™ cat# A35122, Thermo Fisher Scientific) according to manufacturer's instructions to identify apoptotic cell population. Necrotic cell population was labeled by propidium iodide (cat# P3566 Thermo Fisher Scientific) at 1:1000 dilution. Cells were then analyzed by flow cytometry using MACSQuant® Analyzer 10. Apoptotic and necrotic cell populations were excluded and only live cells for measured for calreticulin exposure.

[2] = system: TumorGraft™ model of non-small cell lung carcinoma (CTG-0860); test: Antitumor activity in low passage TumorGraft model of non-small cell lung carcinoma in humanized mice (CTG-0860); assay type: in vivo; details: per Table 1: XMT-1519 conjugate 1.0 mg/kg IV q7dx3; pembrolizumab 2.5 mg/kg IP q5dx6; n=5 per group; FIG. 1
Procedure: Unmatched human leukocyte antigen (HLA) humanized CD34+ engrafted immune compromised female mice (Taconic NOG) were subcutaneously implanted unilaterally on the left flank with tumor fragments (n=5 for each group and two additional mice for tumor infiltration lymphocytes measurement for the test compounds only). […] Tumor size was measured at the times indicated in FIG. 1 using digital calipers. Tumor volume was calculated and was used to determine the tumor growth inhibition. Control mice were sacrificed when tumors reached a size of 1500 mm^3. Tumor volumes are reported as the mean±SEM for each group.
When tumors reached a size of 1500 mm^3 in control mice, they were sacrificed as well as two mice from each treatment groups, and tumor infiltration lymphocytes were analyzed. At the study endpoint (day 49) all the surviving mice were sacrificed and tumor infiltration lymphocytes were analyzed. Tumors were dissociated and analyzed for tumor infiltrating lymphocytes by flow cytometry for the following markers: human CD45 infiltrating lymphocytes, hCD3 (T cells), hCD4 (helper T cells), hCD8 (cytotoxic T cells), hCD19 (B cells), T cells activation and proliferation—hCD25.

SKBR3 [3] = test: Calreticulin exposure on cell membrane (flow cytometry), SKBR3; assay type: cell-based; details: SKBR3 (700,000 HER2 receptors); 1 μM, 2.5 h at 37° C; FIG. 3
Procedure: as §2

HT-29 = test: Calreticulin exposure on cell membrane (flow cytometry), HT-29; assay type: cell-based; details: HT-29 (16,000 HER2 receptors, low HER2); 1 μM, 2.5 h at 37° C; FIG. 3
Procedure: as §2

[4] = system: 4T1-7bb7 cells (human HER2-expressing mouse 4T1 breast cancer); test: Tumor response in 4T1-7bb7 syngeneic mouse model (Example 5); assay type: in vivo, Balb/c mice; details: per Table 2: XMT-1519 conjugate 4.0 mg/kg IV qwx2; Kadcyla 15.0 mg/kg IV qwx2; anti-PD1 mAb 10.0 mg/kg IP days 0, 2, 4, 7, 10; n=13; FIG. 5
Procedure: Tumor growth inhibition (% TGI) was defined as the percent difference in median tumor volumes (MTVs) between treated and control groups.
Treatment efficacy was determined from the incidence and magnitude of regression responses of the tumor size observed during the study. Treatment may cause partial regression (PR) or complete regression (CR) of the tumor in an animal. In a PR response, the tumor volume was 50% or less of its Day 1 volume for three consecutive measurements during the course of the study, and equal to or greater than 13.5 mm^3 for one or more of these three measurements. In a CR response, the tumor volume was less than 13.5 mm^3 for three consecutive measurements during the course of the study. An animal with a CR response at the termination of a study was additionally classified as a tumor-free survivor (TFS). Animals were monitored for regression responses.
Six to eight week old female, Balb/c mice (Jackson Labs, Bar Harbor, Me.) were subcutaneously implanted unilaterally on the left flank with 4×10^4/mouse 4T1-7bb7 cells (n=13 mice/group). […] Tumor sizes were measured twice a week using digital calipers, and average tumor volume was calculated to determine tumor growth inhibition. […]

human HER2 = human HER2 (Homo sapiens, UniProt P04626); test: Inhibition of HER2 functional activity in vitro
Procedure: The HER2 antibodies disclosed herein serve to modulate, block, inhibit, reduce, antagonize, neutralize or otherwise interfere with the functional activity of HER2. HER2. Functional activities of HER2 include for example, modulation of PI3K-Akt pathway activity. […] PI3K-Akt pathway activity is assessed using any art-recognized method for detecting PI3K-Akt pathway activity, including, but not limited to detecting levels of phosphorylated Akt in the presence and absence of an antibody or antigen binding fragment disclosed herein.
The HER2 antibodies are considered to completely modulate, block, inhibit, reduce, antagonize, neutralize or otherwise interfere with HER2 functional activity when the level of HER2 functional activity in the presence of the HER2 antibody is decreased by at least 95%, e.g., by 96%, 97%, 98%, 99% or 100% as compared to the level of HER2 functional activity in the absence of binding with a HER2 antibody described herein. The HER2 antibodies are considered to partially modulate, block, inhibit, reduce, antagonize, neutralize or otherwise interfere with HER2 functional activity when the level of HER2 activity in the presence of the HER2 antibody is decreased by less than 95%, e.g., 10%, 20%, 25%, 30%, 40%, 50%, 60%, 75%, 80%, 85% or 90% as compared to the level of HER2 activity in the absence of binding with a HER2 antibody described herein.

[5] = NCI-N87 (800,000 HER2 receptors), 1 μM, live cells only, FIG. 3

Row | Compound | ATP release (JIMT-1) | ATP release (SKBR3 [1]) | calreticulin exposure on cell membrane (NCI-N87 cells; [5]) | calreticulin exposure on cell membrane (NCI-N87 cells; NCI-N87, mitoxantrone at 0.01 to 1 μM, FIG. 3 panel (a)) | tumor response (tumor volume / tumor growth inhibition) [2] | calreticulin exposure on cell membrane (SKBR3 [3]) | calreticulin exposure on cell membrane (HT-29) | tumor response (tumor growth inhibition / anti-tumor efficacy) [4] | functional activity of HER2 (human HER2)
1 | CC[C@H](C)[C@@H]([C@@H](CC(=O)N1CCC[C@H]1[C@H](OC)[C@@H](C)C(=O)N[C@@H](Cc1ccccc1)C(=O)NCCCO)OC)N(C)C(=O)[C@@H](NC(=O)[C@H](C(C)C)N(C)C)C(C)C [AF-HPA, Auristatin F-hydroxypropyl amide] (NMe2Val-V[Dil][Dolaproine]F-{NH(3-hydroxypropyl)}) | ATP was released | ATP was released | induced calreticulin exposure | – | – | – | – | – | –
2 | O=C1c2c(O)ccc(O)c2C(=O)c2c(NCCNCCO)ccc(NCCNCCO)c21 [mitoxantrone, reference compound] | ATP was released | ATP was released | – | dose dependent calreticulin exposure | – | – | – | – | –
3 | XMT 1519-(EG2-MI-(7.7 kDa PHF-BA-(AF-HPA-Ala))) [XMT-1519 conjugate] | ATP was released | ATP was released | induced calreticulin exposure | – | decrease in tumor volume | induced calreticulin exposure | induced calreticulin exposure | significant inhibition of tumor growth | –
4 | XMT 1519: fully human HER2 monoclonal antibody, heavy chain SEQ ID NO: 5, light chain SEQ ID NO: 6 | – | – | – | – | – | – | – | – | inhibit the functional activity of HER2 in vitro
